Tests used:
[1] = cited from earlier work
[2] = Plasma protein binding, equilibrium dialysis, rat plasma; assay type: in vitro ADME; details: 1 μM
Mer kinase = target: T1, Mer kinase (Homo sapiens, UniProt Q12866); assay: Mer kinase inhibition assay (TK-Sub-Biotin / cryptate detection); assay type: biochemical; details: for IC50: means from three independent experiments
T1 construct: purchased Invitrogen (Shanghai, China)
T1 sequence (Q12866 21-999): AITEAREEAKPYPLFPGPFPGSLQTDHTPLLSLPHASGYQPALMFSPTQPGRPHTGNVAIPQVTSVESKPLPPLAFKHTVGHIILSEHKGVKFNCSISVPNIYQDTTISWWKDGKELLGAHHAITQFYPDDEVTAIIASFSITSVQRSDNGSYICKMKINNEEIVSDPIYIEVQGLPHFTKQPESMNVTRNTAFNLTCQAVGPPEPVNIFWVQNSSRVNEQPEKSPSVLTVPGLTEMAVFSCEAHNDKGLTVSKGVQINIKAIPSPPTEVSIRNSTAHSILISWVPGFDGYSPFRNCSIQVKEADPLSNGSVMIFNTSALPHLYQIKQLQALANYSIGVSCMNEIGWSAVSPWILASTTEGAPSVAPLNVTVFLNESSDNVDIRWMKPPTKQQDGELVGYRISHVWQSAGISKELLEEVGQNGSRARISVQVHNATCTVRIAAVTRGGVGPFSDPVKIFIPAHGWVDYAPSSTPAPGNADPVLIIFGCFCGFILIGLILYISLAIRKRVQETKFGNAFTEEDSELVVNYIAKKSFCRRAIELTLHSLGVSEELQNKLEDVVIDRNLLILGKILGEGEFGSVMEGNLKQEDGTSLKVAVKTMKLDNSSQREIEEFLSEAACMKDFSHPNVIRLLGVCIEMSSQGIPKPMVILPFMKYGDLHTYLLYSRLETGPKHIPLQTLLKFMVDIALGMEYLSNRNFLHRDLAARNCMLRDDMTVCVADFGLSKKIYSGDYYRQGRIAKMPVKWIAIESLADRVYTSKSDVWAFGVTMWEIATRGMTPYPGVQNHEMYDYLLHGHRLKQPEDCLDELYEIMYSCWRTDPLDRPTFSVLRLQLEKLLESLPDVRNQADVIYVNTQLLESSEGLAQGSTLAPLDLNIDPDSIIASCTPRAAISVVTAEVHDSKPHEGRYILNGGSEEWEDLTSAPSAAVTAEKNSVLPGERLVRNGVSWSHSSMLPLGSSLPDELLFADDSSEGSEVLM

c-Met kinase = target: T2, c-Met kinase (Homo sapiens, UniProt P08581); assay: c-Met kinase inhibition assay (TK-Sub-Biotin / cryptate detection); assay type: biochemical; details: for IC50: means from three independent experiments
T2 construct: purchased Invitrogen (Shanghai, China)

[3] = Liver microsome stability assay; assay type: in vitro ADME, human; details: human, liver microsomes, pH 7.4, human liver microsomes; for microsomal CLint: read-out: CL (intrinsic clearance)

T2 sequence (P08581 25-1390): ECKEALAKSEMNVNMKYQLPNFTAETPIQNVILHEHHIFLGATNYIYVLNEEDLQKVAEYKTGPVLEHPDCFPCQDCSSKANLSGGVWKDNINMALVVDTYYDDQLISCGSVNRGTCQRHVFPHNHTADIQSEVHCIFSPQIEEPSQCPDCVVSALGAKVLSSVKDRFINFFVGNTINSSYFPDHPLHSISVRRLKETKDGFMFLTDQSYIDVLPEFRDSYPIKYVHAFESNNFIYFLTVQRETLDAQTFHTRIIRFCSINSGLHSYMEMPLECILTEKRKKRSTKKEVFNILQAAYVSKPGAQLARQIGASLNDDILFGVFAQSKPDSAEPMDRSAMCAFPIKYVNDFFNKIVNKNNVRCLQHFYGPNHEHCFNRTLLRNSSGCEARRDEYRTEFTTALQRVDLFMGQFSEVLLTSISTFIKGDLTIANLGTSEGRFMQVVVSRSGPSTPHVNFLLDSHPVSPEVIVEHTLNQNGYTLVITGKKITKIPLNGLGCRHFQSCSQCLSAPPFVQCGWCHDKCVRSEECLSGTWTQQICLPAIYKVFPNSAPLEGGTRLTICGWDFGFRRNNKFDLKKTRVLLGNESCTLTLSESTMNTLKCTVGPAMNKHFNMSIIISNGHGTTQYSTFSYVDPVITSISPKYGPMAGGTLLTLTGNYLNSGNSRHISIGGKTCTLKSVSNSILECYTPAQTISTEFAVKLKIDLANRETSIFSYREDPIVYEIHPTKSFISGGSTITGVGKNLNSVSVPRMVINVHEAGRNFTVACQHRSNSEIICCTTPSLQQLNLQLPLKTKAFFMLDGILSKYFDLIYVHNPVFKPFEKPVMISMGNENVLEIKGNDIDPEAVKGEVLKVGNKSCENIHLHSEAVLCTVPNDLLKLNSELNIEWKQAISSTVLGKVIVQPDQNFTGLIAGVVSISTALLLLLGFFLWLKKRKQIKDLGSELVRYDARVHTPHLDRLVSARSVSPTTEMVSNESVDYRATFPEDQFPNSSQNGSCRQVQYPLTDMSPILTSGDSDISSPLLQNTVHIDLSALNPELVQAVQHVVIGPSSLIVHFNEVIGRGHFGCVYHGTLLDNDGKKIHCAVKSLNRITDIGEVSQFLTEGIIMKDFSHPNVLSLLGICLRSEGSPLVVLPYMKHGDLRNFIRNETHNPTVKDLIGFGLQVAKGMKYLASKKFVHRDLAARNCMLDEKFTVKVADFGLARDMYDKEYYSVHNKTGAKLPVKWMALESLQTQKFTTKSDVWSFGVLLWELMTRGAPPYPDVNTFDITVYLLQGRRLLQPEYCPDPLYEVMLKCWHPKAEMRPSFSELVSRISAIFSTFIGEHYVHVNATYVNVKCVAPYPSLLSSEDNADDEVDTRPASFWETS

| Compound | IC50 (Mer kinase) | IC50 (c-Met kinase) | also measured |
| --- | --- | --- | --- |
| CN1CCN(Cc2ccc(-c3cn([C@H]4CC[C@H](O)CC4)c4nc(NCCC5CC5)ncc34)cc2)CC1 [MRX2843] | – | – | brain/plasma ration ([1]; CNS penetration): 0.4 |
| CC(=O)CC(c1ccccc1)c1c(O)c2ccccc2oc1=O (stereo not drawn) [Warfarin, reference compound] | – | – | Mean Fb [2]: 99.0% |
| CN1CCC(Oc2ccc(Nc3nccc(Oc4ccc(NC(=O)C5(C(=O)Nc6ccc(F)cc6)CC5)cc4)n3)cc2)CC1 [compound 13a, N-(4-fluorophenyl)-N-(4-((2-((4-((1-methylpiperidin-4-yl)oxy)phenyl)amino)pyrimidin-4-yl)oxy)phenyl)cyclopropane-1,1-dicarboxamide] | 21.7 ± 5.8 nM | 63.3 ± 9.1 nM | – |
| COCCNc1cccc(Nc2nccc(Oc3ccc(NC(=O)C4(C(=O)Nc5ccc(F)cc5)CC4)cc3)n2)c1 [compound 13b] | 24.3 ± 5.7 nM | 25.9 ± 7.7 nM | half-life [3]: 38.3 min; microsomal CLint [3]: 90.5 µL/min/mg |
| O=C(Nc1ccc(F)cc1)C1(C(=O)Nc2ccc(Oc3ccnc(Nc4cn[nH]c4)n3)cc2)CC1 [compound 13c, N-(4-((2-((1H-pyrazol-4-yl)amino)pyrimidin-4-yl)oxy)phenyl)-N-(4-fluorophenyl)cyclopropane-1,1-dicarboxamide] | 110 ± 15.7 nM | 48.9 ± 6.4 nM | – |
| O=C(Nc1ccc(F)cc1)C1(C(=O)Nc2ccc(Oc3ccnc(Nc4cc(F)cc(F)c4)n3)cc2)CC1 [compound 13d, N-(4-((2-((3,5-difluorophenyl)amino)pyrimidin-4-yl)oxy)phenyl)-N-(4-fluorophenyl)cyclopropane-1,1-dicarboxamide] | 640 ± 82.2 nM | 728 ± 131 nM | – |
| CC(=O)N1CCN(c2cccc(Nc3nccc(Oc4ccc(NC(=O)C5(C(=O)Nc6ccc(F)cc6)CC5)cc4)n3)c2)CC1 [compound 13e] | 7.5 ± 1.6 nM | 7.5 ± 1.1 nM | fold improvement over 18c, Mer IC50 (Mer kinase): 2.5 fold; half-life [3]: 30.4 min; microsomal CLint [3]: 114 µL/min/mg; fold improvement over 18c, c-Met IC50 (c-Met kinase): 4.5 fold |
| O=C(NC1CCCNC1)c1cccc(Nc2nccc(Oc3ccc(NC(=O)C4(C(=O)Nc5ccc(F)cc5)CC4)cc3)n2)c1 (stereo not drawn) [compound 13f, N-(4-fluorophenyl)-N-(4-((2-((3-(piperidin-3-ylcarbamoyl)phenyl)amino)pyrimidin-4-yl)oxy)phenyl)cyclopropane-1,1-dicarboxamide] | > 1000 nM | > 1000 nM | – |
| O=C(NC1CCCNC1)c1ccc(Nc2nccc(Oc3ccc(NC(=O)C4(C(=O)Nc5ccc(F)cc5)CC4)cc3)n2)cc1 (stereo not drawn) [compound 13g, N-(4-fluorophenyl)-N-(4-((2-((4-(piperidin-3-ylcarbamoyl)phenyl)amino)pyrimidin-4-yl)oxy)phenyl)cyclopropane-1,1-dicarboxamide] | > 1000 nM | > 1000 nM | – |
| CN1CCN(C(=O)c2ccc(Nc3nccc(Oc4ccc(NC(=O)C5(C(=O)Nc6ccc(F)cc6)CC5)cc4)n3)cc2)CC1 [compound 13h, N-(4-fluorophenyl)-N-(4-((2-((4-(4-methylpiperazine-1-carbonyl)phenyl)amino)pyrimidin-4-yl)oxy)phenyl)cyclopropane-1,1-dicarboxamide] | 72 ± 8.9 nM | 41.6 ± 8.5 nM | – |
| CCN(CC)CCNCC(=O)Nc1ccc(Nc2nccc(Oc3ccc(NC(=O)C4(C(=O)Nc5ccc(F)cc5)CC4)cc3)n2)cc1 [compound 13i, N-(4-((2-((4-(2-((2-(diethylamino)ethyl)amino)acetamido)phenyl)amino)pyrimidin-4-yl)oxy)phenyl)-N-(4-fluorophenyl)cyclopropane-1,1-dicarboxamide] | 95.3 ± 20.1 nM | 88.6 ± 13.9 nM | – |
| CN(C)CCNCC(=O)Nc1ccc(Nc2nccc(Oc3ccc(NC(=O)C4(C(=O)Nc5ccc(F)cc5)CC4)cc3)n2)cc1 [compound 13j] | 13.1 ± 2.1 nM | 48.6 ± 11.2 nM | half-life [3]: 27.9 min; microsomal CLint [3]: 152 µL/min/mg |
| COCCN1CCN(CC(=O)Nc2ccc(Nc3nccc(Oc4ccc(NC(=O)C5(C(=O)Nc6ccc(F)cc6)CC5)cc4)n3)cc2)CC1 [compound 13k] | 37.3 ± 10.6 nM | 35.4 ± 10 nM | half-life [3]: 38.4 min; microsomal CLint [3]: 124 µL/min/mg |
| Cc1c(C(=O)Nc2ccc(Oc3ccnc(Nc4ccc(OC5CCN(C)CC5)cc4)n3)cc2)c(=O)n(-c2ccccc2)n1C [compound 17a, 1,5-dimethyl-N-(4-((2-((4-((1-methylpiperidin-4-yl)oxy)phenyl)amino)pyrimidin-4-yl)oxy)phenyl)-3-oxo-2-phenyl-2,3-dihydro-1H-pyrazole-4-carboxamide] | 26.2 ± 7.1 nM | 233 ± 25.4 nM | – |
| COCCNc1cccc(Nc2nccc(Oc3ccc(NC(=O)c4c(C)n(C)n(-c5ccccc5)c4=O)cc3)n2)c1 [compound 17b, N-(4-((2-((3-((2-methoxyethyl)amino)phenyl)amino)pyrimidin-4-yl)oxy)phenyl)-1,5-dimethyl-3-oxo-2-phenyl-2,3-dihydro-1H-pyrazole-4-carboxamide] | 12.1 ± 1.3 nM | 101 ± 18.5 nM | – |
| Cc1c(C(=O)Nc2ccc(Oc3ccnc(Nc4ccc(C(=O)N5CCN(C)CC5)cc4)n3)cc2)c(=O)n(-c2ccccc2)n1C [compound 17d, 1,5-dimethyl-N-(4-((2-((4-(4-methylpiperazine-1-carbonyl)phenyl)amino)pyrimidin-4-yl)oxy)phenyl)-3-oxo-2-phenyl-2,3-dihydro-1H-pyrazole-4-carboxamide] | 84.1 ± 13.9 nM | 137 ± 34.3 nM | – |
| CC(=O)N1CCN(c2ccc(Nc3nccc(Oc4ccc(NC(=O)c5c(C)n(C)n(-c6ccccc6)c5=O)cc4)n3)cc2)CC1 [compound 17e, N-(4-((2-((4-(4-acetylpiperazin-1-yl)phenyl)amino)pyrimidin-4-yl)oxy)phenyl)-1,5-dimethyl-3-oxo-2-phenyl-2,3-dihydro-1H-pyrazole-4-carboxamide] | 69.8 ± 12.5 nM | 236 ± 25.6 nM | – |
| CC(=O)N1CCN(c2cccc(Nc3nccc(Oc4ccc(NC(=O)c5c(C)n(C)n(-c6ccccc6)c5=O)cc4)n3)c2)CC1 [compound 17f, N-(4-((2-((3-(4-acetylpiperazin-1-yl)phenyl)amino)pyrimidin-4-yl)oxy)phenyl)-1,5-dimethyl-3-oxo-2-phenyl-2,3-dihydro-1H-pyrazole-4-carboxamide] | 5.5 ± 0.8 nM | 25 ± 3.5 nM | half-life [3]: 51 min; microsomal CLint [3]: 68 µL/min/mg |
| Cc1c(C(=O)Nc2ccc(Oc3ccnc(Nc4ccc(NC(=O)CN5CCN(C)CC5)nc4)n3)cc2)c(=O)n(-c2ccccc2)n1C [compound 17g, 1,5-dimethyl-N-(4-((2-((6-(2-(4-methylpiperazin-1-yl)acetamido)pyridin-3-yl)amino)pyrimidin-4-yl)oxy)phenyl)-3-oxo-2-phenyl-2,3-dihydro-1H-pyrazole-4-carboxamide] | > 1000 nM | 140 ± 18.9 nM | – |
| Cc1c(C(=O)Nc2ccc(Oc3ccnc(Nc4ccc(NC(=O)C(C)N5CCN(C)CC5)cc4)n3)cc2)c(=O)n(-c2ccccc2)n1C (stereo not drawn) [compound 17h, 1,5-dimethyl-N-(4-((2-((4-(2-(4-methylpiperazin-1-yl)propanamido)phenyl)amino)pyrimidin-4-yl)oxy)phenyl)-3-oxo-2-phenyl-2,3-dihydro-1H-pyrazole-4-carboxamide] | 11.9 ± 1.7 nM | 45 ± 6.8 nM | – |
| CN1CCN(CC(=O)Nc2ccc(Nc3nccc(Oc4ccc(NC(=O)C5(C(=O)Nc6ccc(F)cc6)CC5)cc4)n3)cc2)CC1 [compound 18c] | – | – | oral bioavailability F ([1]; previous study): 2.84% |
